This note sets out measurements from PMC8040265, “A polysaccharide utilization locus from the gut bacterium Dysgonomonas mossii encodes functionally distinct carbohydrate esterases” (The Journal of Biological Chemistry, 2021).

The test deals with T1, DmCE1B_ct (Dysgonomonas mossii, UniProt F8X1N1).
T1 construct: gene HMPREF9456_02279; dimer; IMAC purified from E. coli BL21(DE3)
The test can be described thus: X-ray crystal structure of soaked crystal, […] Å. It is filed as binding. The note with it: crystal soak with saturating MFA, 0.1 M Tris pH 8, 25% w/v PEG 6000; one MFA at edge of active site groove, one at dimer interface.

T1 sequence (F8X1N1 294-656): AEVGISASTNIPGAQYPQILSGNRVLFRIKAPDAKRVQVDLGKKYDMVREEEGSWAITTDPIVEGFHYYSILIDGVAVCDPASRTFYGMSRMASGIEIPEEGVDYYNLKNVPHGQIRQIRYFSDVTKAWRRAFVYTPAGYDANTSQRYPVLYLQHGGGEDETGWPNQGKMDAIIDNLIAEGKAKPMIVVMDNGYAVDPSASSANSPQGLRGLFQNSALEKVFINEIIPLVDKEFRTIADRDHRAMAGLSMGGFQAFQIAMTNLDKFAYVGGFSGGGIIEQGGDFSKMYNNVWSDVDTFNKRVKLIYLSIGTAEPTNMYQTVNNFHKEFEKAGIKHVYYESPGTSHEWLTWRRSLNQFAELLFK

Turning to `COC(=O)/C=C/c1ccc(O)c(OC)c1` [MFA], the “X-ray crystal structure of soaked crystal, 1.41 Å” value was “Two MFA molecules were observed and modeled (Fig. S15A)”.
